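Five compound concentrations were applied to cells in 96-well plates for 48 hours; endpoints were derived by simple linear interpolation of the resulting dose-response curve. At the TGI there is no net growth.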
Legend:
Experiment in all cases: DTP human tumour cell line panel, 48 h
786-0 renal = test system: 786-0 renal
A549 NSCLC = test system: A549 NSCLC
ACHN renal = test system: ACHN renal
BT-549 breast = test system: BT-549 breast
CAKI-1 renal = test system: CAKI-1 renal
CCRF-CEM leukemia = test system: CCRF-CEM leukemia
COLO 205 colon = test system: COLO 205 colon
DU-145 prostate = test system: DU-145 prostate
EKVX NSCLC = test system: EKVX NSCLC
HCC-2998 colon = test system: HCC-2998 colon
HCT-116 colon = test system: HCT-116 colon
HCT-15 colon = test system: HCT-15 colon
HL-60(TB) leukemia = test system: HL-60(TB) leukemia
HOP-62 NSCLC = test system: HOP-62 NSCLC
HS 578T breast = test system: HS 578T breast
HT29 colon = test system: HT29 colon
IGROV1 ovarian = test system: IGROV1 ovarian
K-562 leukemia = test system: K-562 leukemia
KM12 colon = test system: KM12 colon
LOX IMVI melanoma = test system: LOX IMVI melanoma
M14 melanoma = test system: M14 melanoma
MALME-3M melanoma = test system: MALME-3M melanoma
MCF7 breast = test system: MCF7 breast
MDA-MB-231 breast = test system: MDA-MB-231 breast
MDA-MB-435 = test system: MDA-MB-435
MDA-N = test system: MDA-N
MOLT-4 leukemia = test system: MOLT-4 leukemia
NCI-H226 lung = test system: NCI-H226 lung
NCI-H23 lung = test system: NCI-H23 lung
NCI-H460 lung = test system: NCI-H460 lung
NCI-H522 lung = test system: NCI-H522 lung
NCI/ADR-RES ovarian = test system: NCI/ADR-RES ovarian
OVCAR-3 ovarian = test system: OVCAR-3 ovarian
OVCAR-4 ovarian = test system: OVCAR-4 ovarian
OVCAR-5 ovarian = test system: OVCAR-5 ovarian
OVCAR-8 ovarian = test system: OVCAR-8 ovarian
PC-3 prostate = test system: PC-3 prostate
RPMI-8226 leukemia = test system: RPMI-8226 leukemia
RXF 393 renal = test system: RXF 393 renal
SF-268 CNS = test system: SF-268 CNS
SF-295 CNS = test system: SF-295 CNS
SK-MEL-2 melanoma = test system: SK-MEL-2 melanoma
SK-MEL-28 melanoma = test system: SK-MEL-28 melanoma
SK-MEL-5 melanoma = test system: SK-MEL-5 melanoma
SK-OV-3 ovarian = test system: SK-OV-3 ovarian
SN12C renal = test system: SN12C renal
SNB-19 CNS = test system: SNB-19 CNS
SNB-75 CNS = test system: SNB-75 CNS
SR leukemia = test system: SR leukemia
SW-620 colon = test system: SW-620 colon
T-47D breast = test system: T-47D breast
TK-10 renal = test system: TK-10 renal
U251 CNS = test system: U251 CNS
UACC-257 melanoma = test system: UACC-257 melanoma
UACC-62 melanoma = test system: UACC-62 melanoma
UO-31 renal = test system: UO-31 renal

Measured: TGI

CCC1(CC)C(=O)N(C(=O)c2ccc(C)cc2)N(C(=O)c2ccc(C)cc2)C1=O
62.7 µM: MALME-3M melanoma
> 75 µM: 786-0 renal | A549 NSCLC | ACHN renal | BT-549 breast | CAKI-1 renal | CCRF-CEM leukemia | COLO 205 colon | DU-145 prostate | EKVX NSCLC | HCC-2998 colon | HCT-116 colon | HCT-15 colon | HL-60(TB) leukemia | HOP-62 NSCLC | HS 578T breast | HT29 colon | IGROV1 ovarian | K-562 leukemia | KM12 colon | LOX IMVI melanoma | M14 melanoma | MCF7 breast | MDA-MB-231 breast | MDA-MB-435 | MDA-N | NCI-H226 lung | NCI-H23 lung | NCI-H460 lung | NCI/ADR-RES ovarian | OVCAR-4 ovarian | OVCAR-5 ovarian | OVCAR-8 ovarian | PC-3 prostate | RPMI-8226 leukemia | RXF 393 renal | SF-268 CNS | SF-295 CNS | SK-MEL-2 melanoma | SK-MEL-28 melanoma | SK-MEL-5 melanoma | SK-OV-3 ovarian | SN12C renal | SNB-19 CNS | SNB-75 CNS | SW-620 colon | T-47D breast | TK-10 renal | U251 CNS | UACC-257 melanoma | UACC-62 melanoma | UO-31 renal
68.8 µM: SR leukemia
51.6 µM: NCI-H522 lung
58.5 µM: MOLT-4 leukemia
46.4 µM: OVCAR-3 ovarian

From PubChem BioAssay (NCI)
